Laboratory results taken from US20240383901A1, “SUBSTITUTED PYRROLO[2,3-D]PYRIMIDINES, THEIR PREPARATION AND THEIR THERAPEUTIC APPLICATION” (SANOFI, priority 2021, published 2024).

Target: LRRK2 (Homo sapiens, UniProt Q5S007)
Experiment: LRRK2 WT assay (Assay B, radiometric 33P-ATP filter binding)
Format: biochemical
Conditions: Assay B (values marked *)
Method: LRRK2(human) is incubated with 50 mM HEPES pH 8.0, 0.2 mM EDTA, 0.01% Brij-35, 1% (w/v) BSA, 5 mM DTT, 250 Mm […], 10 mM Magnesium acetate and [[…]]-ATP (specific activity and concentration as required).
The reaction is initiated by the addition of the Mg/ATP mix.

Chain of LRRK2 (Q5S007 whole entry): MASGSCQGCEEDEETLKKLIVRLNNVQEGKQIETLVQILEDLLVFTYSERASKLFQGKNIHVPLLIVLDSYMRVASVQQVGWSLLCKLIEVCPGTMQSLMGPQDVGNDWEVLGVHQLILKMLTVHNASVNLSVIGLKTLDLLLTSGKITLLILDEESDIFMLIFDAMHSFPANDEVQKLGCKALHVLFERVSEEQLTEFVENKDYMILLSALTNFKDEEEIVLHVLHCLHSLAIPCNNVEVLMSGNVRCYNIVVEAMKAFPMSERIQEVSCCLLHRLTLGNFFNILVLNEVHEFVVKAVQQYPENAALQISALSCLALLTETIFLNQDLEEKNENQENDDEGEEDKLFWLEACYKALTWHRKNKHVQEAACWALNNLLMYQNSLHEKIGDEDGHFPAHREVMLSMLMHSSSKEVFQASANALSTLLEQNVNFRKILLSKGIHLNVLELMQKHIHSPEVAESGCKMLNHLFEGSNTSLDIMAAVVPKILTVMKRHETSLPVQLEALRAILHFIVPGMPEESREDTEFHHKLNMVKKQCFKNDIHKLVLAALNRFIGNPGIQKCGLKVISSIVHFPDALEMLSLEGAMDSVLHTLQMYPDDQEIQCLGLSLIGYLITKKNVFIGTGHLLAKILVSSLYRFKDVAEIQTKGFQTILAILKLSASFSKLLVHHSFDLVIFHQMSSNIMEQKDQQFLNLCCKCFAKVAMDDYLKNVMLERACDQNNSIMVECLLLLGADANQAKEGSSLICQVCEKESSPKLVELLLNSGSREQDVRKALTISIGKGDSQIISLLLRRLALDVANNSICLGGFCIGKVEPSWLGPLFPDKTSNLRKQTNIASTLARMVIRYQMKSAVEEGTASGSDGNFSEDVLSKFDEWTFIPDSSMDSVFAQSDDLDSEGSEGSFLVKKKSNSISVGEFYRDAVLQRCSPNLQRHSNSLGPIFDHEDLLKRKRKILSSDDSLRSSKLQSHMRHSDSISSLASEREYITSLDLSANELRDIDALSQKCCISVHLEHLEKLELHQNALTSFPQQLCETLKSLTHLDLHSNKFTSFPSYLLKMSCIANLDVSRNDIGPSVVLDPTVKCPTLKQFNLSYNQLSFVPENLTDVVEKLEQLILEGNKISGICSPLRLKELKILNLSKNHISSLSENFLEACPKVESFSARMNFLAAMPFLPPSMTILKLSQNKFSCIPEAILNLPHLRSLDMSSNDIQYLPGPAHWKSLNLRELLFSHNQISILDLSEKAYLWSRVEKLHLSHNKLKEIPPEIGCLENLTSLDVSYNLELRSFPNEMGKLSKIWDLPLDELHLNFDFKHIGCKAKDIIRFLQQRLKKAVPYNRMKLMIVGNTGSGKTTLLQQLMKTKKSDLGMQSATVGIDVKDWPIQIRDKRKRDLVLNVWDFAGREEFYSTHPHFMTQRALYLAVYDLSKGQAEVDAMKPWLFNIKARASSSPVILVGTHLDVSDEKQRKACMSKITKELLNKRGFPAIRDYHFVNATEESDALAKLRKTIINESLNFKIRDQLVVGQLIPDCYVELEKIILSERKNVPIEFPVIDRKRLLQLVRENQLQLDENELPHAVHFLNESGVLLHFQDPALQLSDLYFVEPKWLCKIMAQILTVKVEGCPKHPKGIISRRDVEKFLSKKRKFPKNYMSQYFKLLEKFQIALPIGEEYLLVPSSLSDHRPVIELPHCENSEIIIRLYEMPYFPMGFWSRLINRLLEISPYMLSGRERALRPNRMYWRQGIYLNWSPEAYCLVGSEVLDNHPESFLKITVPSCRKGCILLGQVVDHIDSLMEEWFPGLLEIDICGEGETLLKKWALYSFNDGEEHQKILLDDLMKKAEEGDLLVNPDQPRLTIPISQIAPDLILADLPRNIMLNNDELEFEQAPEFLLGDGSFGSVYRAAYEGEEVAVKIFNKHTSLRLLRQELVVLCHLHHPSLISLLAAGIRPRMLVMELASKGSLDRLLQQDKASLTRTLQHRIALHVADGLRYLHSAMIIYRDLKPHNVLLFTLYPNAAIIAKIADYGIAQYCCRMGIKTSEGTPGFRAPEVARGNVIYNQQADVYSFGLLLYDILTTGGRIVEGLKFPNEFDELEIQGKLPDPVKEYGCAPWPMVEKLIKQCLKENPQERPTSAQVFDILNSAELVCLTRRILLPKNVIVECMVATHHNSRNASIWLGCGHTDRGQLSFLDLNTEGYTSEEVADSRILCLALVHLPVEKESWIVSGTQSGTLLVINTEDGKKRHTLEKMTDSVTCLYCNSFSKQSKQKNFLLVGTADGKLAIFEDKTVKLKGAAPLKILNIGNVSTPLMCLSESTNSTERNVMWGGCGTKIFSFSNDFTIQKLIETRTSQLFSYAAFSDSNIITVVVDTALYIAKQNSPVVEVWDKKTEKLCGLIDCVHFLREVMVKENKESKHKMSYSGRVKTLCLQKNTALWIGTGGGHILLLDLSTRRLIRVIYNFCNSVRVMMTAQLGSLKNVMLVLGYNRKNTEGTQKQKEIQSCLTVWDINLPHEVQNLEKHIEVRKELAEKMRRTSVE

Row | Compound | IC50 [nM]
1 | CC1COCCC1n1c(C#N)cc2cnc(Nc3cn(C)nc3OC3COC3)nc21 (single isomer, unassigned) [Example 85, ((1-methyl-3-(oxetan-3-yloxy)-1 H-pyrazol-4-yl)amino)-7-((cis)-3-methyltetrahydro-2H-pyran-4-yl)-7H-pyrrolo[2,3-d]pyrimidine-6-carbonitrile] | 41
2 | C[C@@H]1COCC[C@H]1n1c(C#N)cc2cnc(Nc3cn(C)nc3OC3COC3)nc21 (single isomer, unassigned) [Example 84, 2-((1-methyl-3-(oxetan-3-yloxy)-1 H-pyrazol-4-yl)amino)-7-((trans)-3-methyltetrahydro-2H-pyran-4-yl)-7H-pyrrolo[2,3-d]pyrimidine-6-carbonitrile] | 7
3 | CC1COCCC1n1c(C#N)cc2cnc(Nc3cn(C)nc3OC3COC3)nc21 (single isomer, unassigned) [Example 86, ((1-methyl-3-(oxetan-3-yloxy)-1 H-pyrazol-4-yl)amino)-7-((cis)-3-methyltetrahydro-2H-pyran-4-yl)-7H-pyrrolo[2,3-d]pyrimidine-6-carbonitrile] | 435
4 | CO[C@H]1COC[C@H]1n1c(C#N)cc2cnc(Nc3cn(C4COC4)nc3OC(C)C)nc21 [Example 63, 2-((3-Isopropoxy-1-(oxetan-3-yl)-1H-pyrazol-4-yl)amino)-7-((3R,4R)-4-methoxytetrahydrofuran-3-yl)-7H-pyrrolo[2,3-d]pyrimidine-6-carbonitrile] | 201
5 | CO[C@H]1COC[C@H]1n1c(C#N)cc2cnc(Nc3cn(C(C)C#N)nc3OC(C)C)nc21 (single isomer, unassigned) [Example 57] | 27
6 | CO[C@H]1COC[C@H]1n1c(C#N)cc2cnc(Nc3ccnc4c3O[C@H](C)CCO4)nc21 [Example 69, 7-((3R,4R)-4-Methoxytetrahydrofuran-3-yl)-2-(((R)-2-methyl-3,4-dihydro-2H-[1,4]dioxepino[2,3-b]pyridin-9-yl)amino)-7H-pyrrolo[2,3-d]pyrimidine-6-carbonitrile] | 597
7 | CC(C)Oc1nn(C(C)C#N)cc1Nc1ncc2cc(C#N)n([C@@H]3COC[C@@H]3C)c2n1 (single isomer, unassigned) [Example 50, 2-((1-(1-cyanoethyl)-3-isopropoxy-1 H-pyrazol-4-yl)amino)-7-((cis)-4-methyltetrahydrofuran-3-yl)-7H-pyrrolo[2,3-d]pyrimidine-6-carbonitrile] | 7
8 | CC[C@H](C)Oc1nn(C)cc1Nc1ncc2cc(C#N)n([C@@H]3COC[C@@H]3OC)c2n1 [Example 67, 2-((3-((S)-sec-Butoxy)-1-methyl-1H-pyrazol-4-yl)amino)-7-((3R,4R)-4-methoxytetrahydrofuran-3-yl)-7H-pyrrolo[2,3-d]pyrimidine-6-carbonitrile] | 297
9 | Cn1cc(Nc2ncc3cc(C#N)n(C4CCCOC4)c3n2)c(OC2COC2)n1 (single isomer, unassigned) [Example 82, 2-((1-methyl-3-(oxetan-3-yloxy)-1 H-pyrazol-4-yl)amino)-7-(tetrahydro-2H-pyran-3-yl)-7H-pyrrolo[2,3-d]pyrimidine-6-carbonitrile] | 104
10 | Cn1cc(Nc2ncc3cc(C#N)n(C4CCOC4)c3n2)c(OC2COC2)n1 (single isomer, unassigned) [Example 53, 2-((1-methyl-3-(oxetan-3-yloxy)-1 H-pyrazol-4-yl)amino)-7-(tetrahydrofuran-3-yl)-7H-pyrrolo[2,3-d]pyrimidine-6-carbonitrile] | 266
11 | Cn1cc(Nc2ncc3cc(C#N)n(C4CCOC4)c3n2)c(OC2COC2)n1 (single isomer, unassigned) [Example 52, 2-((1-methyl-3-(oxetan-3-yloxy)-1 H-pyrazol-4-yl)amino)-7-(tetrahydrofuran-3-yl)-7H-pyrrolo[2,3-d]pyrimidine-6-carbonitrile] | 26
12 | CO[C@H]1COC[C@H]1n1c(C#N)cc2cnc(Nc3cn(C(C)(C)C#N)nc3OC3CC3)nc21 [Example 59, 2-((1-(2-Cyanopropan-2-yl)-3-cyclopropoxy-1H-pyrazol-4-yl)amino)-7-((3R,4R)-4-methoxytetrahydrofuran-3-yl)-7H-pyrrolo[2,3-d]pyrimidine-6-carbonitrile] | 31
13 | CO[C@H]1COC[C@H]1n1c(C#N)cc2cnc(Nc3cn(C)nc3OC(C)C)nc21 [Example 62, 2-((3-Isopropoxy-1-methyl-1H-pyrazol-4-yl)amino)-7-((3R,4R)-4-methoxytetrahydrofuran-3-yl)-7H-pyrrolo[2,3-d]pyrimidine-6-carbonitrile] | 114
14 | CC(C)Oc1nn(C(C)C#N)cc1Nc1ncc2cc(C#N)n([C@@H]3COC[C@@H]3C)c2n1 (single isomer, unassigned) [Example 49, 2-((1-(1-cyanoethyl)-3-isopropoxy-1 H-pyrazol-4-yl)amino)-7-((cis)-4-methyltetrahydrofuran-3-yl)-7H-pyrrolo[2,3-d]pyrimidine-6-carbonitrile] | 274
15 | [2H]c1c(Nc2ncc3cc(C#N)n([C@@H](C)COC)c3n2)c(OC2CC2)nn1COC [Example 95, (S)-2-((3-cyclopropoxy-1-(methoxymethyl)-1H-pyrazol-4-yl-5-d)amino)-7-(1-methoxypropan-2-yl)-7H-pyrrolo[2,3-d]pyrimidine-6-carbonitrile] | 16
16 | CC[C@H]1COC[C@H]1n1c(C#N)cc2cnc(Nc3cn(C)nc3OC(C)C)nc21 (racemic) [Example 72, 7-((cis)-4-ethyltetrahydrofuran-3-yl)-2-((3-isopropoxy-1-methyl-1 H-pyrazol-4-yl)amino)-7H-pyrrolo[2,3-d]pyrimidine-6-carbonitrile] | 83
17 | [2H]c1c(Nc2ncc3cc(C#N)n([C@H]4COC[C@@H]4C)c3n2)c(OC2COC2)nn1C([2H])([2H])[2H] [Example 98, 2-((1-(methyl-d3)-3-(oxetan-3-yloxy)-1H-pyrazol-4-yl-5-d)amino)-7-((3R,4R)-4-methyltetrahydrofuran-3-yl)-7H-pyrrolo[2,3-d]pyrimidine-6-carbonitrile] | 12
18 | CO[C@H]1COC[C@H]1n1c(C#N)cc2cnc(Nc3cn(C)nc3OC3CC(F)(F)C3)nc21 [Example 65, 2-((3-(3,3-Difluorocyclobutoxy)-1-methyl-1H-pyrazol-4-yl)amino)-7-((3R,4R)-4-methoxytetrahydrofuran-3-yl)-7H-pyrrolo[2,3-d]pyrimidine-6-carbonitrile] | 187
19 | CO[C@H]1COC[C@H]1n1c(C#N)cc2cnc(Nc3cn(C(C)C#N)nc3OC3CC3)nc21 (stereo partly drawn) [Example 58, 2-((1-(1-Cyanoethyl)-3-cyclopropoxy-1H-pyrazol-4-yl)amino)-7-((3R,4R)-4-methoxytetrahydrofuran-3-yl)-7H-pyrrolo[2,3-d]pyrimidine-6-carbonitrile] | 15
20 | CO[C@H]1COC[C@H]1n1c(C#N)cc2cnc(Nc3ccnc4c3OC(C)(C)CC4)nc21 [Example 68, 2-((2,2-Dimethyl-3,4-dihydro-2H-pyrano[3,2-b]pyridin-8-yl)amino)-7-((3R,4R)-4-methoxytetrahydrofuran-3-yl)-7H-pyrrolo[2,3-d]pyrimidine-6-carbonitrile] | > 1000
21 | [2H]c1c(Nc2ncc3cc(C#N)n([C@H]4COC[C@@H]4C)c3n2)c(OC2COC2)nn1C [Example 94, 2-((1-Methyl-3-(oxetan-3-yloxy)-1 H-pyrazol-4-yl-5-d)amino)-7-((3R,4R)-4-methyltetrahydrofuran-3-yl)-7H-pyrrolo[2,3-d]pyrimidine-6-carbonitrile] | 7
22 | CC[C@@H]1COC[C@H]1n1c(C#N)cc2cnc(Nc3cn(C)nc3OC(C)C)nc21 (racemic) [Example 73, 7-((trans)-4-ethyltetrahydrofuran-3-yl)-2-((3-isopropoxy-1-methyl-1 H-pyrazol-4-yl)amino)-7H-pyrrolo[2,3-d]pyrimidine-6-carbonitrile] | 11
23 | C[C@@H]1COCC[C@H]1n1c(C#N)cc2cnc(Nc3cn(C)nc3OC3COC3)nc21 (single isomer, unassigned) [Example 83, 2-((1-methyl-3-(oxetan-3-yloxy)-1 H-pyrazol-4-yl)amino)-7-((trans)-3-methyltetrahydro-2H-pyran-4-yl)-7H-pyrrolo[2,3-d]pyrimidine-6-carbonitrile] | 134
24 | CC(C)Oc1nn(C)cc1Nc1ncc2cc(C#N)n(C3COC3)c2n1 [Example 75, 2-((3-Isopropoxy-1-methyl-1 H-pyrazol-4-yl)amino)-7-(oxetan-3-yl)-7H-pyrrolo[2,3-d]pyrimidine-6-carbonitrile] | 44

Target: T1, full-length LRRK2 wild type (Homo sapiens, UniProt Q5S007)
T1 construct: DYDDDDK tagged full-length LRRK2 wild type is used
Experiment: LRRK2 WT assay (Assay A, Lanthascreen TR-FRET, 500 uM ATP)
Format: biochemical
Conditions: Assay A (values without *)

T1 sequence (Q5S007 whole entry): as above

Row | Compound | IC50 [nM]
25 | C[C@H]1COC[C@@H]1n1c(C#N)cc2cnc(Nc3cn(C)nc3OC3CCC34COC4)nc21 (stereo partly drawn) [Example 40, 2-[[1-methyl-3-[(2-oxaspiro[3.3]heptan-7-yl)oxy]pyrazol-4-yl]amino]-7-[(3R,4R)-4-methyltetrahydrofuran-3-yl]pyrrolo[2,3-d]pyrimidine-6-carbonitrile] | 1
26 | CC(Oc1nn(C)cc1Nc1ncc2cc(C#N)n([C@H]3COC[C@@H]3C)c2n1)C(F)(F)F (single isomer, unassigned) [Example 21] | 1
27 | [2H]C([2H])([2H])n1cc(Nc2ncc3cc(C#N)n([C@H]4COC[C@@H]4C)c3n2)c(OC2CCOC2)n1 (single isomer, unassigned) [Example 111] | 17
28 | [2H]C([2H])([2H])n1cc(Nc2ncc3cc(C#N)n([C@H]4COC[C@@H]4C)c3n2)c(OC2COC(C)(C)C2)n1 (single isomer, unassigned) [Example 110] | 4
29 | C[C@@H]1COC[C@H]1Oc1nn(C)cc1Nc1ncc2cc(C#N)n([C@H]3COC[C@@H]3C)c2n1 (single isomer, unassigned) [Example 3] | 5

Target: T2, full-length LRRK2 G2019S (Homo sapiens, UniProt Q5S007, G2019S)
T2 construct: DYKDDDDK (FLAG)
Experiment: LRRK2-G2019S kinase activity assay (Lanthascreen TR-FRET)
Format: biochemical
Conditions: 1.1 mM ATP

T2 sequence (Q5S007 whole entry G2019S): as the sequence (Q5S007 whole entry) above, with G2019S counted along it

Row | Compound | IC50 [nM]
30 | C[C@H]1COC[C@@H]1n1c(C#N)cc2cnc(Nc3cn(C)nc3OC3CCC34COC4)nc21 (stereo partly drawn) [Example 40, 2-[[1-methyl-3-[(2-oxaspiro[3.3]heptan-7-yl)oxy]pyrazol-4-yl]amino]-7-[(3R,4R)-4-methyltetrahydrofuran-3-yl]pyrrolo[2,3-d]pyrimidine-6-carbonitrile] | 1
31 | CC(Oc1nn(C)cc1Nc1ncc2cc(C#N)n([C@H]3COC[C@@H]3C)c2n1)C(F)(F)F (single isomer, unassigned) [Example 21] | 1
32 | [2H]C([2H])([2H])n1cc(Nc2ncc3cc(C#N)n([C@H]4COC[C@@H]4C)c3n2)c(OC2CCOC2)n1 (single isomer, unassigned) [Example 111] | 22
33 | [2H]C([2H])([2H])n1cc(Nc2ncc3cc(C#N)n([C@H]4COC[C@@H]4C)c3n2)c(OC2COC(C)(C)C2)n1 (single isomer, unassigned) [Example 110] | 8
34 | C[C@@H]1COC[C@H]1Oc1nn(C)cc1Nc1ncc2cc(C#N)n([C@H]3COC[C@@H]3C)c2n1 (single isomer, unassigned) [Example 3] | 4
